Test results published in article PMC2099433, “The binding site for neohesperidin dihydrochalcone at the human sweet taste receptor” (BMC Structural Biology, 2007).
Residue numbers refer to the chain shown, from its start. Where a SMILES comes first, the peptide text is derived from it.

Key:
[1] = molecular target: T1, hTAS1R2 + hTAS1R3 F730L^5.43 (Homo sapiens, UniProt Q7RTX0+Q8TE23, F730L); test: Calcium response (FLIPR), hTAS1R3 mutant coexpressed with hTAS1R2; assay type: cell-based; details: variant F730L^5.43; for Emax: read-out: maximal signal (% of wt)
T1 construct: expressed in transfected cells; host or cells: HEK293T cells stably expressing G16Gust44
T1 sequence (Q8TE23 20-839): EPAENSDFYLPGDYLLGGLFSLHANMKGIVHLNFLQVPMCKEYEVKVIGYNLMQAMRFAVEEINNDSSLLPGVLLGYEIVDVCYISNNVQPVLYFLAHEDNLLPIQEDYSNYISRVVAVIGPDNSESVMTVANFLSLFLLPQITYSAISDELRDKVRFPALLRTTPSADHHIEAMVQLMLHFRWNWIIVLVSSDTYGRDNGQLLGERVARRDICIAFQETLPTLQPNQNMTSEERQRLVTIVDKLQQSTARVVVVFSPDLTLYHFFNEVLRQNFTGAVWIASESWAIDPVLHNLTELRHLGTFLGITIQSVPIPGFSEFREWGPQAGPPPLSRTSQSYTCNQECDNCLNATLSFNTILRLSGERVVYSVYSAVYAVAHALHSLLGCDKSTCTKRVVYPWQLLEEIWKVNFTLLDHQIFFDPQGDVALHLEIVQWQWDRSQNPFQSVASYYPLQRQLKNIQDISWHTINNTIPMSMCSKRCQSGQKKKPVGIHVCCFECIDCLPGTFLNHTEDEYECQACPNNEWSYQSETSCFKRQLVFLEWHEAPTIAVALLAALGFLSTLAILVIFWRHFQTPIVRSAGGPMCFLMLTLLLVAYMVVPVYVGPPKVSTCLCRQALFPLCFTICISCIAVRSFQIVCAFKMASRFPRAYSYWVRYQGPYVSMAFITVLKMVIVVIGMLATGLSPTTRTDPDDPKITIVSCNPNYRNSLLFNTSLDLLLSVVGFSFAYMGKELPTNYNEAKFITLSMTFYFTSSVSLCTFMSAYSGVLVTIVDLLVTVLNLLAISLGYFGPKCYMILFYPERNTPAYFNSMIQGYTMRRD
T1 sequence (Q7RTX0 21-852 F730L): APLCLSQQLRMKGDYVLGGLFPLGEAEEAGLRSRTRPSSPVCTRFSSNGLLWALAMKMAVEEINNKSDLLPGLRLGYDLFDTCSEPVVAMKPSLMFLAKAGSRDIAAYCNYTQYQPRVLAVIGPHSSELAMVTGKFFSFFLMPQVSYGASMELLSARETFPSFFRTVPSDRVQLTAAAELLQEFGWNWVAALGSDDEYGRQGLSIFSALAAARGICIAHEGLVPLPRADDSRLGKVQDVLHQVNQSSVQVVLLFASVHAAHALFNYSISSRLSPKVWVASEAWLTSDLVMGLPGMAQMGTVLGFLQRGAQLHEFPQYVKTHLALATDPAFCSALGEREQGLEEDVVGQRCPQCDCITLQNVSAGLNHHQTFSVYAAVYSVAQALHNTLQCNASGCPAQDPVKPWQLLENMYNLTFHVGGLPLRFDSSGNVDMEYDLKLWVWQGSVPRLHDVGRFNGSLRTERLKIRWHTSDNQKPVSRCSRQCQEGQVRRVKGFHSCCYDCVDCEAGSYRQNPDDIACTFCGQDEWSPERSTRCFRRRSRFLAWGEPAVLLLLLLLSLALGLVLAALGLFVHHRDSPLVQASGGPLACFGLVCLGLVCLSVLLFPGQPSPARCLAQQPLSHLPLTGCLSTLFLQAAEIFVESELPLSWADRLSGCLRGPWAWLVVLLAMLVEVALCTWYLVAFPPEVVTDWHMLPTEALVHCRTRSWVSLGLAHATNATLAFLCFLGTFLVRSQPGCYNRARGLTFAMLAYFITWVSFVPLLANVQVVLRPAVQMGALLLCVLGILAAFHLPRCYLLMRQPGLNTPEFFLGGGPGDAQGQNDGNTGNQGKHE
Method in brief: (§1)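 HEK293T/G16Gust44, transient transfection of HSV-tagged TAS1R2 + TAS1R3 mutants; Fluo4-AM loading 1 h at 24 h; sweet tastants in C1 solution; FLIPR Ca2+ read; ΔF/F, mock-subtracted; ≥3 independent expts in duplicate.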

[2] = molecular target: T2, hTAS1R2 + hTAS1R3 Y699L^4.60 (Homo sapiens, UniProt Q7RTX0+Q8TE23, Y699L); test: as above; assay type: cell-based; details: variant Y699L^4.60; for Emax: read-out: maximal signal (% of wt)
T2 construct: expressed in transfected cells; host or cells: HEK293T cells stably expressing G16Gust44
T2 sequence (Q7RTX0 21-852 Y699L): T1 sequence (Q7RTX0 21-852 F730L) with Y679L, L710F
T2 sequence (Q8TE23 20-839): T1 sequence (Q8TE23 20-839)
Method in brief: as §1

In the case of `COc1ccc(CCC(=O)c2c(O)cc(O[C@@H]3O[C@H](CO)[C@@H](O)[C@H](O)[C@H]3O[C@@H]3O[C@@H](C)[C@H](O)[C@@H](O)[C@H]3O)cc2O)cc1O` [NHDC, neohesperidin dihydrochalcone], the EC50 [1] is reported as 900 ± 100 µM, the Emax [1] is reported as 70 ± 18% and the EC50 [2] is reported as 700 ± 100 µM. The Emax [2] was 83 ± 40%.
`COC(=O)[C@H](Cc1ccccc1)NC(=O)[C@@H](N)CC(=O)O` [aspartame] (HELM PEPTIDE1{D.F.[CO[*:1]]}$$$$V2.0) was tested, and the EC50 [1] was 1700 ± 400 µM, the Emax [1] was 87 ± 27% and the EC50 [2] was 1600 ± 400 µM. The Emax [2] was 78 ± 9%.
